The record followed here is US11744844B2, “Selective estrogen receptor degraders” (Eli Lilly and Company, priority 2021, dated 2023).

One test deals with T1, ERα (Homo sapiens, UniProt P03372).
T1 construct: measure the degradation of ERα by a test compound in an ERα positive breast cancer cell line such as MCF7; host or cells: MCF7
T1 sequence (P03372 1-595): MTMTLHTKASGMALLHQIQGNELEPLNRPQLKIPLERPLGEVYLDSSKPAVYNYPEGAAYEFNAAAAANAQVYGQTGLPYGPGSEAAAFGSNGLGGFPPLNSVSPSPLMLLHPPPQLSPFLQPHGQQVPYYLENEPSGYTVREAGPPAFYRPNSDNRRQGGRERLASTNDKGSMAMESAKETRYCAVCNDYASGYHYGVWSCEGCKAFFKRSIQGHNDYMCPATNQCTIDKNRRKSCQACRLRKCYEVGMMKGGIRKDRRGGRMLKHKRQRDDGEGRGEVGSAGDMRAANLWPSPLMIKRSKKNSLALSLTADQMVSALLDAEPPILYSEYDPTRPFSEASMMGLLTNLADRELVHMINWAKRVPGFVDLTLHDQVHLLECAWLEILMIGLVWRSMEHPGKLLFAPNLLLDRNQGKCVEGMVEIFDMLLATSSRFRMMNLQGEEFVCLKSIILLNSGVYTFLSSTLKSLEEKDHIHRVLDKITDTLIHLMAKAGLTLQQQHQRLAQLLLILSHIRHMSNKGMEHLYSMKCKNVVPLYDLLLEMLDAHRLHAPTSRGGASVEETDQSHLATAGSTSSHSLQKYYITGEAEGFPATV
As to the kind of experiment: ERα degradation assay in MCF7 cells. Type of test: cell-based. The settings on record: 24 hours incubation, read-out: Relative IC50, ERα degradation (% ER positive cells). The procedure: The purpose of the following ERα degradation assay is to measure the degradation of ERα by a test compound in an ERα positive breast cancer cell line such as MCF7.
Culture MCF7 (purchased from ATCC HTB-22) cells in DMEM media supplemented with 10% FBS, 0.01 mg/mL human insulin 1 and 1% penicillin/streptomycin antibiotics and plate in 384-well flat-bottom plates at a density of 4,000 cells per well in phenol red free DMEM media (20 μL) containing 10% charcoal stripped FBS. Incubate the cells overnight in a cell culture incubator (5% CO2, 95% relative humidity and 37° C.) and allow the cells to attach to the plate. The following day dose the cells with the test compound. Use an Echo 555 acoustic dispenser to prepare test compound serial dilutions (1:3) in a range from 6 μM to 0.0003 μM. Dose the cells with the addition of 5 μL from the serial dilution plate to the cell plate producing a final DMSO concentration of 0.2% with a final test compound concentration dose range between 2 and 0.0001 μM. For the maximum point, use media containing 0.2% of DMSO and for the minimum point, use fulvestrant diluted at 2 μM final concentrations in the growth media containing 0.2% DMSO. […] Scan the plates with ACUMEN EXPLORER™ (Laser-scanning fluorescence microplate cytometer manufactured by TTP LABTECH LTD) to measure ERα. […]

Test [1] concerns MCF7 ESR1 wild type cells. As to the kind of experiment: Cell proliferation assay in MCF7. Type of test: cell-based. The settings on record: Homo sapiens, 168 h, seven days, read-out: Relative IC50 MCF7 ESR1 wild type, cell proliferation. The procedure:
The purpose of the following cell proliferation assays generally is to detect whether a test compound has effects on cell proliferation.
Seed MCF7 (purchased from ATCC HTB-22) cells at a density of 2,000 cells per well in DMEM phenol red free media 10% FBS (20 μL volume) (charcoal stripped) into a clear bottom 384-well cell culture plate. Plate MCF7-ESRY537N-682 (generated by CRISPR/Cas9 gene editing of ESr1 gene in MCF7 cells, clone #682) in DMEM media supplemented with 10% FBS, and 1% penicillin/streptomycin antibiotics at a density of 1000 cells per well. Incubate the plates at 37° C. and 5% CO2. The following day dose the cells with the test compound. Use an Echo 555 acoustic dispenser to prepare test compound serial dilutions (1:3) in a range from 60 μM to 0.003 μM. Dose the cells with the addition of 5 μL from the serial dilution plate to the cell plate, producing a final DMSO concentration of 0.2% with a final test compound concentration dose range between 20 and 0.001 μM. For the maximum point use media containing 0.2% of DMSO and for the minimum point use fulvestrant diluted at 2 μM final concentrations in the growth media containing 0.2% DMSO. After dosing with the test compound, incubate the cell plates at 37° C. and 5% CO2. […] Scan the plates with ACUMEN EXPLORER™ (Laser-scanning fluorescence microplate cytometer manufactured by TTP LABTECH LTD).

Structures can show the parent of a compound that is named as a salt.

With `O=S(=O)(O)Oc1ccc2c3c(cnc2c1)-c1ccc(C(F)(F)F)cc1O[C@@H]3c1ccc(OCCN2CC(CF)C2)cc1` [Example 1, [(5R)-5-[4-[2-[3-(Fluoromethyl)azetidin-1-yl]ethoxy]phenyl]-8-(trifluoromethyl)-5H-chromeno[4,3-c]quinolin-2-yl]hydrogen sulfate], the DC50 on ERα is 0.115 ± 0.0184 µM. Further, the IC50 in test [1] is 0.518 ± 0.0499 µM.

For the compound `O=C(O)[C@H]1O[C@@H](Oc2ccc3c4c(cnc3c2)-c2ccc(C(F)(F)F)cc2O[C@@H]4c2ccc(OCCN3CC(CF)C3)cc2)[C@H](O)[C@@H](O)[C@@H]1O` [Example 2, (2S,3S,4S,5R,6S)-6-[[(5R)-5-[4-[2-[3-(Fluoromethyl)azetidin-1-yl]ethoxy]phenyl]-8-(trifluoromethyl)-5H-chromeno[4,3-c]quinolin-2-yl]oxy]-3,4,5-trihydroxy-tetrahydropyran-2-carboxylic acid], at ERα, the DC50 was 0.211 ± 0.0692 µM. Moreover, the IC50 in test [1] turned out to be 0.55 ± 0.238 µM.
